From ChEMBL document CHEMBL3885861, “Open TG-GATES”

Species on record: Rattus norvegicus
Test: Open TG-GATES - Regimen: Single
Assay type: toxicity, organism-based, Sprague-Dawley
Design: regimen Single, gender Male, age 6 weeks
Conditions: in vivo, po, 0 mg/kg, route gavage, dose level Control; for APTT / Bas / Eos / Fbg / Hb / Ht / Lym / MCH / MCHC / MCV / Mono / Neu / PT / Plat / RBC / Ret / WBC: tissue Blood; for KIDNEY_L / KIDNEY_R / KIDNEY_TOTAL: tissue Kidney; for LIVER: tissue Liver; for A/G / ALP / ALT / AST / BUN / CRE / Ca / Cl / DBIL / GLC / IP / K / LDH / Na / PL / RALB / TBIL / TC / TG / TP / gamma-GTP: tissue Plasma

NNC(=O)c1ccncc1 [ISONIAZID]
TERMINAL_BW (3 h): 225.5 g | APTT (3 h): 18.5 s | Bas (3 h): 0% | Eos (3 h): 1% | Fbg (3 h): 232.2 mg/dL | Hb (3 h): 13.5 g/dL | Ht (3 h): 37.8% | Lym (3 h): 80% | MCH (3 h): 21.5 pg | MCHC (3 h): 35.7% | MCV (3 h): 60.3 fL | Mono (3 h): 3% | Neu (3 h): 15.6% | PT (3 h): 11.8 s | Plat (3 h): 121.9 x10_4/uL | RBC (3 h): 627.2 x10_4/ul | Ret (3 h): 8.1% | WBC (3 h): 82.1 x10_2/uL | KIDNEY_L (3 h): 1 g | KIDNEY_R (3 h): 0.9 g | KIDNEY_TOTAL (3 h): 1.9 g | LIVER (3 h): 10.5 g | A/G (3 h): 1.5 | ALP (3 h): 945.2 IU/L | ALT (3 h): 34.2 IU/L | AST (3 h): 66 IU/L | BUN (3 h): 10 mg/dL | CRE (3 h): 0.4 mg/dL | Ca (3 h): 10.9 mg/dL | Cl (3 h): 104.2 meq/L | DBIL (3 h): 0.066 mg/dL | GLC (3 h): 195.6 mg/dL | IP (3 h): 8.8 mg/dL | K (3 h): 4.1 meq/L | LDH (3 h): 160 IU/L | Na (3 h): 141.8 meq/L | PL (3 h): 148.2 mg/dL | RALB (3 h): 3.3 g/dL | TBIL (3 h): 0.1 mg/dL | TC (3 h): 80.8 mg/dL | TG (3 h): 90.6 mg/dL | TP (3 h): 5.5 g/dL | gamma-GTP (3 h): 1.2 IU/L | TERMINAL_BW (6 h): 221.6 g | APTT (6 h): 19.9 s | Bas (6 h): 0% | Eos (6 h): 1% | Fbg (6 h): 230 mg/dL | Hb (6 h): 13.5 g/dL | Ht (6 h): 37.6% | Lym (6 h): 80.8% | MCH (6 h): 21.8 pg | MCHC (6 h): 35.8% | MCV (6 h): 60.9 fL | Mono (6 h): 3% | Neu (6 h): 14.6% | PT (6 h): 12.3 s | Plat (6 h): 125.3 x10_4/uL | RBC (6 h): 618.4 x10_4/ul | Ret (6 h): 8% | WBC (6 h): 96.3 x10_2/uL | KIDNEY_L (6 h): 1 g | KIDNEY_R (6 h): 0.9 g | KIDNEY_TOTAL (6 h): 1.9 g | LIVER (6 h): 9.2 g | A/G (6 h): 1.6 | ALP (6 h): 976.8 IU/L | ALT (6 h): 31.2 IU/L | AST (6 h): 64.8 IU/L | BUN (6 h): 8.8 mg/dL | CRE (6 h): 0.4 mg/dL | Ca (6 h): 10.4 mg/dL | Cl (6 h): 104.2 meq/L | DBIL (6 h): 0.068 mg/dL | GLC (6 h): 197.6 mg/dL | IP (6 h): 9.8 mg/dL | K (6 h): 4.1 meq/L | LDH (6 h): 156.6 IU/L | Na (6 h): 141.2 meq/L | PL (6 h): 133.8 mg/dL | RALB (6 h): 3.3 g/dL | TBIL (6 h): 0.1 mg/dL | TC (6 h): 78.4 mg/dL | TG (6 h): 52.8 mg/dL | TP (6 h): 5.4 g/dL | gamma-GTP (6 h): 1.2 IU/L | TERMINAL_BW (9 h): 220.2 g | APTT (9 h): 17.3 s | Bas (9 h): 0% | Eos (9 h): 0.8% | Fbg (9 h): 221.8 mg/dL | Hb (9 h): 13.5 g/dL | Ht (9 h): 37.7% | Lym (9 h): 79.2% | MCH (9 h): 21.8 pg | MCHC (9 h): 35.7% | MCV (9 h): 61.1 fL | Mono (9 h): 2% | Neu (9 h): 16.6% | PT (9 h): 12.5 s | Plat (9 h): 120.7 x10_4/uL | RBC (9 h): 617.4 x10_4/ul | Ret (9 h): 7.7% | WBC (9 h): 101.6 x10_2/uL | KIDNEY_L (9 h): 0.9 g | KIDNEY_R (9 h): 0.9 g | KIDNEY_TOTAL (9 h): 1.9 g | LIVER (9 h): 8.6 g | A/G (9 h): 1.7 | ALP (9 h): 780 IU/L | ALT (9 h): 31.4 IU/L | AST (9 h): 70 IU/L | BUN (9 h): 9.6 mg/dL | CRE (9 h): 0.4 mg/dL | Ca (9 h): 10.5 mg/dL | Cl (9 h): 104.6 meq/L | DBIL (9 h): 0.066 mg/dL | GLC (9 h): 200.6 mg/dL | IP (9 h): 9.7 mg/dL | K (9 h): 3.8 meq/L | LDH (9 h): 237.4 IU/L | Na (9 h): 142.2 meq/L | PL (9 h): 137.6 mg/dL | RALB (9 h): 3.4 g/dL | TBIL (9 h): 0.1 mg/dL | TC (9 h): 74.8 mg/dL | TG (9 h): 54.6 mg/dL | TP (9 h): 5.4 g/dL | gamma-GTP (9 h): 1 IU/L | TERMINAL_BW (24 h): 234.8 g | APTT (24 h): 18.6 s | Bas (24 h): 0.4% | Eos (24 h): 1.2% | Fbg (24 h): 217.8 mg/dL | Hb (24 h): 13.8 g/dL | Ht (24 h): 38% | Lym (24 h): 76% | MCH (24 h): 22.6 pg | MCHC (24 h): 36.2% | MCV (24 h): 62.3 fL | Mono (24 h): 2.8% | Neu (24 h): 19.2% | PT (24 h): 11.5 s | Plat (24 h): 127.6 x10_4/uL | RBC (24 h): 610 x10_4/ul | Ret (24 h): 7.2% | WBC (24 h): 106 x10_2/uL | KIDNEY_L (24 h): 1 g | KIDNEY_R (24 h): 1 g | KIDNEY_TOTAL (24 h): 2 g | LIVER (24 h): 10.9 g | A/G (24 h): 1.6 | ALP (24 h): 930.6 IU/L | ALT (24 h): 34 IU/L | AST (24 h): 68.8 IU/L | BUN (24 h): 14.8 mg/dL | CRE (24 h): 0.4 mg/dL | Ca (24 h): 10.9 mg/dL | Cl (24 h): 103.8 meq/L | DBIL (24 h): 0.058 mg/dL | GLC (24 h): 191 mg/dL | IP (24 h): 7.7 mg/dL | K (24 h): 4.2 meq/L | LDH (24 h): 190.8 IU/L | Na (24 h): 141.8 meq/L | PL (24 h): 154 mg/dL | RALB (24 h): 3.5 g/dL | TBIL (24 h): 0.1 mg/dL | TC (24 h): 80 mg/dL | TG (24 h): 114 mg/dL | TP (24 h): 5.6 g/dL | gamma-GTP (24 h): 1 IU/L
